Test results: PMC7160324 (Bioorganic & medicinal chemistry letters, 2018)
Entries after “also recorded” stand apart in the source; their conditions may differ.

How the values were obtained:
mAChRs = test: [3H]DA release assay, superfused rat striatal slices
human M5 mAChR = target: T1, human M5 mAChR (Homo sapiens, UniProt P08912); test: [3H]NMS binding, CHO cell membranes expressing human M5 mAChR
T1 sequence (P08912 1-532): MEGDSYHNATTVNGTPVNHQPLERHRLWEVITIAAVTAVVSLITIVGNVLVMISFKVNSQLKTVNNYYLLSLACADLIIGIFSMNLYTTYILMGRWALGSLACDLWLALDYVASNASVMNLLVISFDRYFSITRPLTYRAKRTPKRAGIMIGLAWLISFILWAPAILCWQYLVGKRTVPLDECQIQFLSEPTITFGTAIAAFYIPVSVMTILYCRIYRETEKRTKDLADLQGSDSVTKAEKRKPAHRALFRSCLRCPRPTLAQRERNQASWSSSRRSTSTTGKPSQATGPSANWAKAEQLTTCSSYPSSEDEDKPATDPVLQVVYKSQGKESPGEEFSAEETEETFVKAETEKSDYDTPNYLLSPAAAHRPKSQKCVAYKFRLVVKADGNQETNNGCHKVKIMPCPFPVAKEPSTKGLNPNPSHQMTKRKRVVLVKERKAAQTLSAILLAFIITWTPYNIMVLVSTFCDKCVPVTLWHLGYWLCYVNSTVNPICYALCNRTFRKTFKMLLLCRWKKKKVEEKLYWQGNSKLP

human M3 mAChR = human M3 mAChR (Homo sapiens, UniProt P20309); conditions: [3H]NMS binding assay; ref [36],[43]; cited from earlier work
Chain of human M3 mAChR (P20309 whole entry): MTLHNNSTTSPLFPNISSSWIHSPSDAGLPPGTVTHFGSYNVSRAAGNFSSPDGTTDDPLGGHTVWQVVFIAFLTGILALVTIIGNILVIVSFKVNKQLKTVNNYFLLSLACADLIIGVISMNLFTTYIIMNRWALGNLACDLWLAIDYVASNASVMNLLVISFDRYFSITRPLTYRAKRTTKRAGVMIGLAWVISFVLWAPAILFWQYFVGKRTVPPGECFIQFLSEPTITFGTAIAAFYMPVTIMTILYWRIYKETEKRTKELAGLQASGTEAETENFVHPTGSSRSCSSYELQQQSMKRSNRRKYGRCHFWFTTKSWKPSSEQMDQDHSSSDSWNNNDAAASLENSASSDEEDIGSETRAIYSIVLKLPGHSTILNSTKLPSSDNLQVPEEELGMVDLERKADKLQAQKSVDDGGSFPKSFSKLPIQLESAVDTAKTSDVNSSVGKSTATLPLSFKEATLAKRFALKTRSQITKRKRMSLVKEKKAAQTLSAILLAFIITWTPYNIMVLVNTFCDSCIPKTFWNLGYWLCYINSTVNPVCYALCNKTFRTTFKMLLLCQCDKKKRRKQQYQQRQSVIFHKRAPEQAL

M3 mAChR = conditions: ref [36],[43]; cited from earlier work

SMILES	selectivity for M3 over M2 (human M3 mAChR) [fold]	effect on carbachol-induced contraction of the isolated rat tracheal muscle (M3 mAChR)	other results
O=C1CCCN1CC#CCN1CCCC1 [oxotremorine]	–	–	effect on [3H]DA overflow compared to control (mAChRs; oxotremorine 100 μM): increased [^3H]DA overflow
CN1[C@@H]2C[C@H](OC(=O)[C@H](CO)c3ccccc3)C[C@H]1[C@@H]1O[C@@H]12 [scopolamine]	–	–	effect on 3c-evoked [3H]DA overflow (mAChRs; scopolamine 10 μM, 3c 10 μM): inhibited
O=C(OC1CN2CCC1CC2)N(CCc1ccc(F)cc1)c1ccccc1 (racemic) [Compound 3c, (±)-quinuclidin-3-yl-(4-fluorophenethyl)(phenyl)carbamate]	–	–	fold higher affinity for M5 mAChRs compared to compound 1 (human M5 mAChR): 1200 fold; effect on oxotremorine-evoked [3H]DA overflow (mAChRs; oxotremorine 100 μM, 3c 0.1, 1, 10 μM, significant at 10 μM): augmented oxotremorine-evoked [^3H]DA overflow; also recorded: augmented release evoked by oxotremorine; also recorded: augmented oxotremorine-evoked DA release
Nc1cccc(CN2CCC(NC(=O)[C@](O)(c3ccccc3)[C@@H]3CCC(F)(F)C3)CC2)n1 [compound A, (2R)-N-[1-(6-aminopyridin-2-ylmethyl)piperidin-4-yl]-2-[(1R)-3,3-difluorocyclopentyl]-2-hydroxy-2-phenylacetamide]	193	inhibition	–
O=C(NCC1CCNCC1)[C@H]1CCCN1C(=O)[C@@H]1C[C@@H](O)CN1C(=O)CC(c1ccc(F)cc1)(c1ccc(F)cc1)c1ccc(F)cc1 [compound 14a, (2R)-1-((2S,4R)-4-hydroxy-1-[3,3,3-tris(4-fluoro-phenyl)propanoyl]-pyrrolidine-2-yl)carbonyl-N-(4-piperidinyl-methyl)pyrrolidine-2-carboxamide]	1600	inhibition	–
